The conditions of series [1]: in toluene, used as standard; cited from earlier work.
The conditions of series [2]: in water, used as standard for phosphorescence quantum yields; cited from earlier work.
In series [3] the test system is human melanocytic melanoma cells (A375). Put plainly: Photocytotoxicity (photodynamic treatment, MTT assay). Conditions: 24 h incubation, irradiated 7.5 mW/cm^2 to 10 J, red filter (cut off < 560 nm). The format is cell-based. The procedure:
In an embodiment the photodynamic activity were as following: For each experiment, A375 cells were plated and kept in the incubator overnight, in order to allow the attachment of the cells. The initial formulation of the sensitizers consisted of a 1 mg/mL solution in DMSO and the desired concentrations were achieved by successive dilutions, being always administered to the cells at 1% DMSO. After sensitizer administration (from 1 nM to 10 µM), cells were incubated for 24 h. Controls were performed on every test. Cells were washed with PBS and new drug-free medium was added. Each plate was irradiated with a fluence rate of 7.5 mW/cm^2 until a total of 10 J was reached, using a light source equipped with a red filter (cut off < 560 nm).

Another series concerns A375 cells. Conditions: absence of light.

Where two headings read alike, the source gives them in different places.

Experimental for A375 cells: In an embodiment the cell culture conditions were as following: The A375 (CRL1619) human melanoma cell lines were purchased from American Type Culture Collection and cultured according to standard procedures using the Dulbecco's Modified Eagle medium (Sigma-Aldrich, Inc; Sigma D-5648) supplemented with 10% heat-inactivated fetal bovine serum (Gibco Invitrogen Life Technologies; Gibco 2010-04), 1% Penicillin-Streptomycin (Gibco Invitrogen Life Technologies; 100 U/mL penicillin and 10 µg/mL streptomycin - Gibco 15140-122) and 100 µM sodium pyruvate (Gibco Invitrogen Life Technologies; Gibco 1360) at 37 °C, in a humidified incubator with 95% air and 5% CO2. For all studies, cells were detached using a solution of 0.25% trypsin-EDTA (Gibco).
In an embodiment for the evaluation of photocytotoxicity a MTT assay was performed. Cell culture plates were washed and incubated with a solution of 3-(4,5-dimethylthiazol-2-yl)-2,5- diphenyltetrazolium bromide (0.5 mg/mL, Sigma) in PBS, pH 7.4, in the dark at 37 °C for 4 hours. To solubilize formazan crystals, a 0.04 M solution of hydrochloric acid in isopropanol was added. Absorbance was measured using a Biotek Synergy HT Plate Reader. Cytotoxicity was expressed as the inhibition percentage of cultures subjected to PDT, correlated with cultures only treated with the vehicle administration of sensitizers. […]

For the compound `C1=Cc2nc1c(-c1ccccc1)c1ccc([nH]1)c(-c1ccccc1)c1nc(c(-c3ccccc3)c3ccc([nH]3)c2-c2ccccc2)C=C1` [TPP, meso-tetraphenylporphyrin], the φF in series [1] is 0.11.

Turning to `[Ru+2].c1ccc(-c2ccccn2)nc1.c1ccc(-c2ccccn2)nc1.c1ccc(-c2ccccn2)nc1` [tris(2,2'-bipyridyl)ruthenium (II)], in series [2], the φF was 0.042.

By IC50 is commonly meant the point on the concentration scale where inhibition reaches its midpoint. A lower IC50 goes with higher potency. For Photofrin@, in series [3], the IC50 was found to be 156 nM.

Turning to “platinum (II) 2,3-dihydroxymethyl-4,5,6,7-tetrahydropyrazolo[1,5-α]pyridine-fused chlorin [Chlorin 8]”, the IC50 in series [3] came to 144 nM; in the series with A375 cells, 22300 nM.

“platinum (II) dimethyl 4,5,6,7-tetrahydropyrazolo[1,5-α]pyridine-2,3-dicarboxylate-fused chlorin [Chlorin 7b]”: the IC50 in series [3] is greater than 5000 nM.

The values above are taken from EP3419977B1, “PLATINUM(II) RING-FUSED CHLORINS, METHODS AND USES THEREOF” (Universidade de Coimbra, priority 2016, dated 2017).
